# Measurements reported in US9187490B2, “Dimeric IAP inhibitors” (TetraLogic Pharmaceuticals Corporation, priority 2005, dated 2015).
# Assays:
# [1] = Half life after single intravenous dose in rat; conditions: in vivo, single IV dose 1 mg/kg, FIG. 2, read-out: terminal elimination half life (converted)
# Method: The IV dose for each Smac mimetic was 1 mg/kg.
# MDA-MB-231 cells [2] = test: Colony formation assay with and without TRAIL; type: cell-based; conditions: MDA-MB-231, in combination with TRAIL
# Method: The ability of cells to form viable colonies was analyzed by adding various concentrations of the compound in the presence and absence of 0.4 ng/ml of TRAIL. Briefly, cells are seeded at 100 cells per well in a 12 well format in 2 ml of growth medium. The medium is removed after twenty-four hours and replaced with Smac mimetics at various concentrations in growth medium with 1% DMSO. After 72 hours on test, the concentrations are removed and replaced with 2 ml. of growth medium. The plates are returned to the incubator for 7-10 days at which time the colonies have multiplied to at least 10 cells per colony which can be counted by eye. The plates are stained with a 0.01% crystal violet solution (wt:vol. in H2O) for thirty minutes. The plates are washed with tap water to remove any residual crystal violet, dried and the colonies are counted. Inhibition data were analyzed using the sigmoidal dose-response (variable slope) equation in GraphPad Prism (GraphPad Software, San Diego, Calif.). The 50% inhibitory concentration (EC50) was the drug concentration that decreased the […] by 50% relative to control samples without drug.
# XIAP-BIR3 = molecular target: T1, XIAP-BIR3 (Homo sapiens, UniProt P98170); test: XIAP BIR-3 fluorescence polarization binding assay; conditions: 5 nM AbuRPF-K(5-Fam)-NH2, 40 nM XIAP-BIR3, 15 min RT, pH 7.5; read-out: KD Range
# T1 construct: 40 nM of XIAP-BIR3 for 15 min at RT
# Method: Following incubation, the polarization values (mP) were measured on a Victor^2V using a 485 nm excitation filter and a 520 nm emission filter. IC50 values were determined from the plot using nonlinear least-squares analysis using GraphPad Prism.
# T98G cells = test: Cytotoxicity synergy study with topoisomerase inhibitors; type: cell-based
# Description: The highest amount of synergy is 50-60% more cell death than would be expected by adding together the cytotoxicity of each compound alone. […] The total synergistic volume was 457, with the greatest synergism being about 30%-40% more cell death than would be expected by adding together the individual Smac and topotecan cytotoxicities, between Entry 1 and a topoismerase inhibitor, such as topotecan.
# To further assess potential drug-drug interactions a matrix of the permutations of two-fold serial dilutions of each drug and a Snac mimetic were tested as well as the activity of each compound alone using a program called MacSynergy II (Prichard, M. N., K. R. Aseltine, and C. Shipman, Jr. 1993. MacSynergy II. User's manual. Univ. of Michigan, Ann Arbor). The synergy with paclitaxel and the Smac peptidomimetic Entry 122 in OVCAR3 cells was tested. The highest amount of synergy detected is 10-20% which indicates greater cell death than would be expected by adding together the cytotoxicity of either compound alone.
# MDA-MB-231 cells [3] = test: Cell proliferation (MTT assay) with and without TRAIL; type: cell-based; conditions: MDA-MB-231, MTT, FIG. 4
# [4] = with topotecan and camptothecin
# T1 sequence (P98170 241-356 limits assumed): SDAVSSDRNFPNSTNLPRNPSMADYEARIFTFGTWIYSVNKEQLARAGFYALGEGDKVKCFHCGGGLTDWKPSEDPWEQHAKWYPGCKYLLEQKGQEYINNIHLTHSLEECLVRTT
smiles,measurement,setting,value
"CC(N)C(=O)NC(C(=O)N1CCCC1Cc1c(-c2ccc(-c3oc4ccccc4c3CC3CCCN3C(=O)C(NC(=O)C(C)N)C(C)C)cc2)oc2ccccc12)C(C)C (single isomer, unassigned) [Entry 1]",half-life,[1],~6 h
same,increase in the cell killing as detected by loss in colony formation,MDA-MB-231 cells [2],100 fold
same,Kd,XIAP-BIR3,< 100 nM
same,total synergistic volume,T98G cells; with a topoisomerase inhibitor such as topotecan,457
same,"greatest synergism, more cell death than expected by adding the individual cytotoxicities",T98G cells; with topotecan,30%-40%
same,"highest amount of synergy, more cell death than expected by adding the cytotoxicity of each compound alone",T98G cells; [4],50-60%
same,synergy with topoisomerase inhibitors,T98G cells; [4],act synergistically
same,increase in the antiproliferative effect in combination with TRAIL,MDA-MB-231 cells [3]; in combination with TRAIL,1000 fold
same,"antiproliferative effect, Smac mimetic alone",MDA-MB-231 cells [3]; without TRAIL,resistant
